From US5391540A, “Substituted pyridine compounds” (Rohm and Haas Company, priority 1993, dated 1995)

Experiments:
Experiment in all cases: Pre-emergent herbicidal activity (Table A)
Type in all cases: in vivo
Yellow Nutsedge = conditions: Cyperus, pre-emergence, Yens, 11.2 kg/ha, 10-14 days, read-out: herbicidal rating (% inhibition)
Procedure, shortened: (§1)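 Seeds or perennial propagules set on compacted topsoil, then covered with soil mixed with a known amount of test compound applied in acetone or water carrier. Ratings assigned on a scale based on percent inhibition of each species.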

Barnyardgrass = conditions: Echinochloa crus-galli, pre-emergence, Bygr, 11.2 kg/ha, 10-14 days, read-out: herbicidal rating (% inhibition)
Procedure, shortened: as §1

Morningglory = conditions: Ipomoea, pre-emergence, Mogl, 11.2 kg/ha, 10-14 days, read-out: herbicidal rating (% inhibition)
Procedure, shortened: as §1

Velvetleaf = conditions: Abutilon theophrasti, pre-emergence, Vele, 11.2 kg/ha, 10-14 days, read-out: herbicidal rating (% inhibition)
Procedure, shortened: as §1

Downy Brome = conditions: Bromus tectorum, pre-emergence, Dobr, 11.2 kg/ha, 10-14 days, read-out: herbicidal rating (% inhibition)
Procedure, shortened: as §1

Cocklebur = conditions: Xanthium strumarium, pre-emergence, Cobu, 11.2 kg/ha, 10-14 days, read-out: herbicidal rating (% inhibition)
Procedure, shortened: as §1

Wild Buckwheat = conditions: Fallopia convolvulus, pre-emergence, Wibw, 11.2 kg/ha, 10-14 days, read-out: herbicidal rating (% inhibition)
Procedure: (§2) Tables A and B summarize results of tests conducted to determine the pre-emergent herbicidal activity of the compounds of this invention. The herbicidal ratings used in Tables A and B were assigned according to a scale based on the percent inhibition of each plant species. The herbicide rating symbols in Tables A and B are defined as follows: […]
(§3) One set of pre-emergent tests was conducted as follows:
(§4) Topsoil was placed in a pan and compacted to a depth of 0.95 to 1.27 cm. from the top of the pan. A predetermined number of seeds of each of several monocotyledonous and dicotyledonous annual plant species and/or vegetative propagules of various perennial plant species were placed on top of the soil. The soil required to level fill a pan after seeding or adding vegetative propagules was weighed into another pan. A known amount of the test compound dissolved or suspended in an organic solvent or water and applied in acetone or water as a carrier was thoroughly mixed with this cover soil, and the herbicide/soil mixture was used as a cover layer for the previously prepared pan. In Table A below the amounts of active ingredient were all equivalent to an application rate of 11.2 kilograms/hectare (kg/ha). After treatment, the pans were moved to a greenhouse bench where they were watered as needed to give adequate moisture for germination and growth.
(§5) Approximately 10-14 days (usually 11 days) after planting and treating, the plants were observed and the results recorded.
(§6) The plant species usually regarded as weeds which were utilized in one set of pre-emergent activity tests, the data for which are shown in Table A, are identified by letter headings printed diagonally above the columns according to the following legend: […]

Annual Bluegrass = conditions: pre-emergence, Anbg, 11.2 kg/ha, 10-14 days, read-out: herbicidal rating (% inhibition)
Procedure: as §2, §3, §4, §5, §6

Seedling Johnsongrass = conditions: Sorghum halepense, pre-emergence, Sejg, 11.2 kg/ha, 10-14 days, read-out: herbicidal rating (% inhibition)
Procedure: as §2, §3, §4, §5, §6

Indian Mustard = conditions: Brassica juncea, pre-emergence, Inmu, 11.2 kg/ha, 10-14 days, read-out: herbicidal rating (% inhibition)
Procedure: as §2, §3, §4, §5, §6

Canada thistle = conditions: Cirsium arvense, pre-emergence, Cath, 11.2 kg/ha, 10-14 days, read-out: herbicidal rating (% inhibition)
Procedure, shortened: as §1

Quackgrass = conditions: pre-emergence, Rhqg, 11.2 kg/ha, 10-14 days, read-out: herbicidal rating (% inhibition)
Procedure, shortened: as §1

Common Lambsquarters = conditions: Chenopodium album, pre-emergence, Colq, 11.2 kg/ha, 10-14 days, read-out: herbicidal rating (% inhibition)
Procedure, shortened: as §1

Pennsylvania Smartweed = conditions: pre-emergence, Pesw, 11.2 kg/ha, 10-14 days, read-out: herbicidal rating (% inhibition)
Procedure, shortened: as §1

Rhizome Johnsongrass = conditions: Sorghum halepense, pre-emergence, Rhjg, 11.2 kg/ha, 10-14 days, read-out: herbicidal rating (% inhibition)
Procedure, shortened: as §1

Compound	inhibition at 11200 g/ha (Yellow Nutsedge)	inhibition at 11200 g/ha (Barnyardgrass)	inhibition at 11200 g/ha (Morningglory)	inhibition at 11200 g/ha (Velvetleaf)	inhibition at 11200 g/ha (Downy Brome)	inhibition at 11200 g/ha (Cocklebur)	inhibition at 11200 g/ha (Wild Buckwheat)	inhibition at 11200 g/ha (Annual Bluegrass)	inhibition at 11200 g/ha (Seedling Johnsongrass)	inhibition at 11200 g/ha (Indian Mustard)	inhibition at 11200 g/ha (Canada thistle)	inhibition at 11200 g/ha (Quackgrass)	inhibition at 11200 g/ha (Common Lambsquarters)	inhibition at 11200 g/ha (Pennsylvania Smartweed)	inhibition at 11200 g/ha (Rhizome Johnsongrass)
COc1nc(C(F)(F)F)c(C(=O)n2cccn2)c(CC(C)C)c1C(=O)SC [Compound 131, 3-pyridinecarbothioic acid, 2-methoxy-4-(2-methylpropyl)-5-(1H-pyrazo1-1-ylcarbonyl)-6-(trifluoromethyl)-, S-methyl ester]	75 to 100%	75 to 100%	75 to 100%	75 to 100%	75 to 100%	50 to 74%	75 to 100%	75 to 100%	75 to 100%	75 to 100%	–	–	–	–	–
COC(=O)c1c(OC)nc(C(F)(F)F)c(N=C2CCCO2)c1CC(C)C [Compound 121, 3-pyridinecarboxylic acid, 5-[(dihydro-2(3H)-furanylidene)amino]-2-methoxy-4-(2-methylpropyl)-6-(trifluoromethyl)-, methyl ester]	50 to 74%	75 to 100%	50 to 74%	75 to 100%	75 to 100%	75 to 100%	75 to 100%	75 to 100%	75 to 100%	75 to 100%	–	–	–	–	–
COC(=O)c1c(OC)nc(C(F)(F)F)c(NC(=O)CCCBr)c1CC(C)C [Compound 120, 3-pyridinecarboxylic acid, 5-[(4-bromo-1-oxobutyl)amino]-2-methoxy-4-(2-methylpropyl)-6-(trifluoromethyl)-, methyl ester]	50 to 74%	75 to 100%	75 to 100%	75 to 100%	75 to 100%	75 to 100%	–	75 to 100%	75 to 100%	–	–	–	–	–	–
COC(=O)c1c(C(F)(F)F)nc(OC)c(C(=O)n2cccn2)c1CC(C)C [Compound 24, 3-pyridinecarboxylic acid, 6-methoxy-4-(2-methylpropyl)-5-(1H-pyrazo1-1-ylcarbonyl)-2-(trifluoromethyl)-, methyl ester, hydrate (1:0.3)]	0 to 24%	75 to 100%	75 to 100%	75 to 100%	75 to 100%	0 to 24%	–	–	–	–	25 to 49%	75 to 100%	75 to 100%	75 to 100%	75 to 100%
COC(=O)c1c(C(F)(F)F)nc(OC)c(N=CN(C)C)c1CC(C)C [Compound 57, 3-pyridinecarboxylic acid, 5[[(dimethylamino)methylene]amino]-6-methoxy-4-(2-methylpropyl)-2-(trifluoromethyl)-, methyl ester]	0 to 24%	75 to 100%	50 to 74%	50 to 74%	75 to 100%	0 to 24%	–	–	–	–	0 to 24%	75 to 100%	75 to 100%	0 to 24%	75 to 100%
C#CCOc1nc(C(F)(F)F)c(C(=O)OC)c(CC(C)C)c1C(=O)OC [Compound 83, 3,5-pyridinedicarboxylic acid, 4-(2-methylpropyl)-2-(2-propynyloxy)-6-(trifluoromethyl)-, dimethyl ester]	0 to 24%	75 to 100%	75 to 100%	75 to 100%	75 to 100%	0 to 24%	–	–	–	–	25 to 49%	75 to 100%	75 to 100%	75 to 100%	25 to 49%
CCOC(=O)C1=C(C(F)(F)F)NC(=O)C(C(N)=O)C1CC(C)C (centres unmarked) [Compound 35, 3-pyridinecarboxylic acid, 5-(aminocarbonyl)-1,4,5,6-tetrahydro-4-(2-methylpropyl)-6-oxo-2-(trifluoromethyl)-, ethyl ester]	0 to 24%	0 to 24%	0 to 24%	0 to 24%	0 to 24%	0 to 24%	–	–	–	–	0 to 24%	0 to 24%	0 to 24%	0 to 24%	0 to 24%
COC(=O)c1c(OC)nc(C(F)(F)F)c(C(=O)N2CCCCCC2)c1CC(C)C [Compound 73, 3-pyridinecarboxylic acid, 5-[(hexahydro-1H-azepin-1-yl)carbonyl]-2-methoxy-4-(2-methylpropyl)-6-(trifluoromethyl)-, methyl ester]	0 to 24%	75 to 100%	50 to 74%	25 to 49%	75 to 100%	0 to 24%	–	–	–	–	75 to 100%	75 to 100%	75 to 100%	75 to 100%	75 to 100%
COC(=O)c1c(OC)nc(C(F)(F)F)c(C(=O)OC)c1C [Compound 86, 3,5-pyridinedicarboxylic acid, 2-methoxy-4-methy1-6-(trifluoromethyl)-, dimethyl ester]	0 to 24%	75 to 100%	75 to 100%	50 to 74%	75 to 100%	0 to 24%	–	–	–	–	0 to 24%	75 to 100%	75 to 100%	50 to 74%	75 to 100%
COC(=O)c1c(OC)nc(C(F)(F)F)c(C(=O)N2CCCCC2)c1CC(C)C [Compound 67, 3-pyridinecarboxylic acid, 2-methoxy-4-(2-methylpropyl)-5-(1-piperidinylcarbonyl)-6-(trifluoromethyl)-, methyl ester]	0 to 24%	75 to 100%	75 to 100%	50 to 74%	75 to 100%	0 to 24%	–	–	–	–	75 to 100%	75 to 100%	75 to 100%	75 to 100%	0 to 24%
COC(=O)c1c(OC)nc(C(F)(F)F)c(C(=O)OC)c1C1CC1 [Compound 9, 3,5-pyridinedicarboxylic acid, 4-cyclopropy1-2-methoxy-6-(trifluoromethyl)-, dimethyl ester]	75 to 100%	75 to 100%	75 to 100%	75 to 100%	75 to 100%	0 to 24%	–	–	–	–	75 to 100%	75 to 100%	75 to 100%	75 to 100%	75 to 100%
